Experimental data: EP2970215B1, “PYRROLIDINE DERIVATIVES, PHARMACEUTICAL COMPOSITIONS CONTAINING THEM, AND THEIR USE IN THERAPY” (AbbVie Deutschland GmbH & Co. KG, priority 2013, dated 2014)

The compounds below were run against T1, human GlyT1c transporter (Homo sapiens, UniProt P48067) (assay: Radioligand binding assay using recombinant CHO cell membranes expressing human GlyT1). Conditions: radioligand binding to human GlyT1c transporter-expressing membranes.
T1 construct: expressed in transfected cells; host or cells: CHO cells (recombinant; line hGlyT1c_5_CHO is named for the uptake assay)
T1 sequence (P48067 1-706): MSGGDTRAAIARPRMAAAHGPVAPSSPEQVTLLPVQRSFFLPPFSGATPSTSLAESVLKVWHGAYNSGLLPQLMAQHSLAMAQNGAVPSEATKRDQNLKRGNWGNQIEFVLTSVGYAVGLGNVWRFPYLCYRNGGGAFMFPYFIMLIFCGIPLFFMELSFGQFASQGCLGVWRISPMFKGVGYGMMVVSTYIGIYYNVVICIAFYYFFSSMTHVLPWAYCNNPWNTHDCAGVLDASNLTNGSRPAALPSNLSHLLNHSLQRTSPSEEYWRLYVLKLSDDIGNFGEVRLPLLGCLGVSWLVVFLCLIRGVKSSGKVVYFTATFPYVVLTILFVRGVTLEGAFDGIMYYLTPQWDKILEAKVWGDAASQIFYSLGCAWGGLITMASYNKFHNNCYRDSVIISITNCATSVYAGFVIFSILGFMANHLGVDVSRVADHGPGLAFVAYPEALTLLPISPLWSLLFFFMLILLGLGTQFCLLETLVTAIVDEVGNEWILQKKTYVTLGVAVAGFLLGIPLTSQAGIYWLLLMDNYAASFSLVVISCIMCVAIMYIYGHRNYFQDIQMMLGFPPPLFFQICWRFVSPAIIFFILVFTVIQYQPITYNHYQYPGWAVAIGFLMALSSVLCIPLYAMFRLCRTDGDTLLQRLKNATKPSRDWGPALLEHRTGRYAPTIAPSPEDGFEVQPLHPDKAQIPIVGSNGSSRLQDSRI
Excerpt: 2. Radioligand binding assays using recombinant CHO cell membranes expressing human GlyT1: […]
With `CC(CCN[C@H]1CN(S(=O)(=O)c2cn(C)cn2)C[C@@H]1c1ccccc1)CC(C)(C)C` (stereo partly drawn) [Example 464, (3R,4S)-1-[(1-methyl-1H-imidazol-4-yl)sulfonyl]-4-phenyl-N-(3,5,5-trimethylhexyl)pyrrolidin-3-amine] the Ki was ≤ 1 µM.
In the case of `CC(CN[C@H]1CN(S(=O)(=O)c2cn(C)cn2)C[C@@H]1c1ccccc1)c1ccccc1` (stereo partly drawn) [Example 465, (3R,4S)-1-[(1-methyl-1H-imidazol-4-yl)sulfonyl]-4-phenyl-N-(2-phenylpropyl)pyrrolidin-3-amine], the Ki is reported as ≤ 1 µM.
For `Cn1cnc(S(=O)(=O)N2C[C@H](NCC3(C)CCCCC3)[C@@H](c3ccccc3)C2)c1` [Example 467, (3R,4S)-N-[(1-methylcyclohexyl)methyl]-1-[(1-methyl-1H-imidazol-4-yl)sulfonyl]-4-phenylpyrrolidin-3-amine], the Ki was ≤ 1 µM.
`Cn1cnc(S(=O)(=O)N2C[C@H](NCCc3cccc(Cl)c3)[C@@H](c3ccccc3)C2)c1` [Example 468, (3R,4S)-N-[2-(3-chlorophenyl)ethyl]-1-[(1-methyl-1H-imidazol-4-yl)sulfonyl]-4-phenylpyrrolidin-3-amine] was tested, and the Ki was ≤ 0.1 µM.
`Cn1cnc(S(=O)(=O)N2C[C@H](NCCOc3ccc(C(C)(C)C)cc3)[C@@H](c3ccccc3)C2)c1` [Example 469, (3R,4S)-N-[2-(4-tert-butylphenoxy)ethyl]-1-[(1-methyl-1H-imidazol-4-yl)sulfonyl]-4-phenylpyrrolidin-3-amine] was tested, and the Ki was ≤ 1 µM.
For `CCC(CN[C@H]1CN(S(=O)(=O)c2cn(C)cn2)C[C@@H]1c1ccccc1)C(C)C` (stereo partly drawn) [Example 470, (3R,4S)-N-(2-ethyl-3-methylbutyl)-1-[(1-methyl-1H-imidazol-4-yl)sulfonyl]-4-phenylpyrrolidin-3-amine], the Ki was ≤ 10 µM.
`Cn1cnc(S(=O)(=O)N2C[C@H](NCCCc3cccc(Cl)c3)[C@@H](c3ccccc3)C2)c1` [Example 471, (3R,4S)-N-[3-(3-chlorophenyl)propyl]-1-[(1-methyl-1H-imidazol-4-yl)sulfonyl]-4-phenylpyrrolidin-3-amine] was tested, and the Ki was ≤ 0.1 µM.
For `Cn1cnc(S(=O)(=O)N2C[C@H](NCc3nc(Br)cs3)[C@@H](c3ccccc3)C2)c1` [Example 472, (3R,4S)-N-[(4-bromo-1,3-thiazol-2-yl)methyl]-1-[(1-methyl-1H-imidazol-4-yl)sulfonyl]-4-phenylpyrrolidin-3-amine], the Ki was ≤ 1 µM.
With `Cc1nc(-c2ccccc2)sc1CN[C@H]1CN(S(=O)(=O)c2cn(C)cn2)C[C@@H]1c1ccccc1` [Example 473, (3R,4S)-1-[(1-methyl-1H-imidazol-4-yl)sulfonyl]-N-[(4-methyl-2-phenyl-1,3-thiazol-5-yl)methyl]-4-phenylpyrrolidin-3-amine] the Ki was ≤ 0.1 µM.
For `Cc1nc(C)c(S(=O)(=O)N2CC(Nc3ccc(F)c(F)c3)C(c3ccccc3)C2)s1` (centres unmarked) [Example 474, N-(3,4-difluorophenyl)-1-[(2,4-dimethyl-1,3-thiazol-5-yl)sulfonyl]-4-phenylpyrrolidin-3-amine], the Ki was ≤ 10 µM.
`Cc1nn(C(C)C)cc1S(=O)(=O)N1CC(Nc2ccc(F)c(F)c2)C(c2ccccc2)C1` (centres unmarked) [Example 475, N-(3,4-difluorophenyl)-1-{[3-methyl-1-(propan-2-yl)-1H-pyrazol-4-yl]sulfonyl}-4-phenylpyrrolidin-3-amine] was tested, and the Ki was ≤ 10 µM.
For `O=S(=O)(c1cccnc1)N1CC(Nc2ccc(F)c(F)c2)C(c2ccccc2)C1` (centres unmarked) [Example 477, N-(3,4-difluorophenyl)-4-phenyl-1-(pyridin-3-ylsulfonyl)pyrrolidin-3-amine], the Ki was ≤ 10 µM.
`O=c1[nH]c(=O)c2cc(S(=O)(=O)N3CC(Nc4ccc(F)c(F)c4)C(c4ccccc4)C3)ccc2[nH]1` (centres unmarked) [Example 480, 6-({3-[(3,4-difluorophenyl)amino]-4-phenylpyrrolidin-1-yl}sulfonyl)quinazoline-2,4(1H,3H)-dione] was tested, and the Ki was > 10 µM.
`Cc1cc2c(cc1S(=O)(=O)N1CC(Nc3ccc(F)c(F)c3)C(c3ccccc3)C1)OCC(=O)N2` (centres unmarked) [Example 481, 7-({3-[(3,4-difluorophenyl)amino]-4-phenylpyrrolidin-1-yl}sulfonyl)-6-methyl-2H-1,4-benzoxazin-3(4H)-one] was tested, and the Ki was ≤ 10 µM.
`Cc1c(S(=O)(=O)N2CC(Nc3ccc(F)c(F)c3)C(c3ccccc3)C2)cnn1C` (centres unmarked) [Example 483, N-(3,4-difluorophenyl)-1-[(1,5-dimethyl-1H-pyrazol-4-yl)sulfonyl]-4-phenylpyrrolidin-3-amine] was tested, and the Ki was ≤ 10 µM.
With `Cc1csc(S(=O)(=O)N2CC(Nc3ccc(F)c(F)c3)C(c3ccccc3)C2)c1` (centres unmarked) [Example 484, N-(3,4-difluorophenyl)-1-[(4-methylthiophen-2-yl)sulfonyl]-4-phenylpyrrolidin-3-amine] the Ki was ≤ 10 µM.
`O=S(=O)(N1CCCC1)N1CC(Nc2ccc(F)c(F)c2)C(c2ccccc2)C1` (centres unmarked) [Example 485, N-(3,4-difluorophenyl)-4-phenyl-1-(pyrrolidin-1-ylsulfonyl)pyrrolidin-3-amine] was tested, and the Ki was ≤ 10 µM.
In the case of `Cc1nn(C)c(Cl)c1S(=O)(=O)N1CC(Nc2ccc(F)c(F)c2)C(c2ccccc2)C1` (centres unmarked) [Example 486, 1-[(5-chloro-1,3-dimethyl-1H-pyrazol-4-yl)sulfonyl]-N-(3,4-difluorophenyl)-4-phenylpyrrolidin-3-amine], the Ki is reported as ≤ 10 µM.
With `Cc1oncc1S(=O)(=O)N1CC(Nc2ccc(F)c(F)c2)C(c2ccccc2)C1` (centres unmarked) [Example 487, N-(3,4-difluorophenyl)-1-[(5-methyl-1,2-oxazol-4-yl)sulfonyl]-4-phenylpyrrolidin-3-amine] the Ki was ≤ 10 µM.
`Cc1ncc(S(=O)(=O)N2CC(Nc3ccc(F)c(F)c3)C(c3ccccc3)C2)n1C` (centres unmarked) [Example 490, N-(3,4-difluorophenyl)-1-[(1,2-dimethyl-1H-imidazol-5-yl)sulfonyl]-4-phenylpyrrolidin-3-amine] was tested, and the Ki was ≤ 10 µM.
With `COC(=O)c1csc(S(=O)(=O)N2CC(Nc3ccc(F)c(F)c3)C(c3ccccc3)C2)c1OC` (centres unmarked) [Example 491, methyl 5-({3-[(3,4-difluorophenyl)amino]-4-phenylpyrrolidin-1-yl}sulfonyl)-4-methoxythiophene-3-carboxylate] the Ki was ≤ 10 µM.
`CCc1ccc(S(=O)(=O)N2CC(Nc3ccc(F)c(F)c3)C(c3ccccc3)C2)s1` (centres unmarked) [Example 492, N-(3,4-difluorophenyl)-1-[(5-ethylthiophen-2-yl)sulfonyl]-4-phenylpyrrolidin-3-amine] was tested, and the Ki was ≥ 10 µM.
For `CC1CCN(S(=O)(=O)N2CC(Nc3ccc(F)c(F)c3)C(c3ccccc3)C2)CC1` (centres unmarked) [Example 493, N-(3,4-difluorophenyl)-1-[(4-methylpiperidin-1-yl)sulfonyl]-4-phenylpyrrolidin-3-amine], the Ki was ≤ 10 µM.
`O=S(=O)(c1ccc(N2CCOCC2)nc1)N1CC(Nc2ccc(F)c(F)c2)C(c2ccccc2)C1` (centres unmarked) [Example 494, N-(3,4-difluorophenyl)-1-{[6-(morpholin-4-yl)pyridin-3-yl]sulfonyl}-4-phenylpyrrolidin-3-amine] was tested, and the Ki was ≤ 10 µM.
With `O=S(=O)(c1ccc2c(c1)OCO2)N1CC(Nc2ccc(F)c(F)c2)C(c2ccccc2)C1` (centres unmarked) [Example 495, 1-(1,3-benzodioxol-5-ylsulfonyl)-N-(3,4-difluorophenyl)-4-phenylpyrrolidin-3-amine] the Ki was > 10 µM.
For `O=S(=O)(c1ccc2c(c1)OCCO2)N1CC(Nc2ccc(F)c(F)c2)C(c2ccccc2)C1` (centres unmarked) [Example 496, N-(3,4-difluorophenyl)-1-(2,3-dihydro-1,4-benzodioxin-6-ylsulfonyl)-4-phenylpyrrolidin-3-amine], the Ki was ≥ 10 µM.
